In brackets after ≈: the same amount, converted by molar mass.

The target in test [1] is Histone deacetylase. The experiment in a line: Inhibitory activity against histone deacetylase (HDAC) derived from partially purified extracts of mammalian HeLa cells. Set-up: species or system Homo sapiens.
In test [2] the test system is Eimeria tenella. The experiment in a line: Antiprotozoal activity (functional assay) using […] bovine kidney (MDBK) host cells infected with Eimeria tenella.
Test [3] deals with HeLa. The experiment in a line: Concentration for 50% inhibition of cell growth of human HeLa cells or foreskin fibroblasts in In vitro anti-proliferative functional assay.
For test [4], the system named is Plasmodium falciparum. The experiment in a line: In vitro antiprotozoal activity against Plasmodium falciparum 3D7 infected erythrocytes […]. It counts as functional, organism-based.

On to `CCC(=O)CCCCC[C@@H]1NC(=O)[C@H]2CCCCN2CC(=O)[C@H]([C@@H](C)CC)/N=C(\S)[C@H](Cc2cn(OC)c3ccccc23)NC1=O`, for which the results for the IC50 in test [1] and in test [4] were 0.085 µM and 0.1 mg/L (≈ 0.153 µM), respectively. Also, the MIC (usually the smallest concentration in the dilution series that meets the test's criterion for growth inhibition) in test [2] is 0.125 mg/L (≈ 0.191 µM). For the same molecule, the AP50 in test [3] came to 1000 ng/mL.

(Values after ChEMBL document CHEMBL1133987, “Broad spectrum antiprotozoal agents that inhibit histone deacetylase: structure-activity relationships of apicidin. Part 1” (Bioorg Med Chem Lett, 2001).)
